Activity calls are given as the source filed them.
Columns and labels:
[1] = molecular target: Beta-2 adrenergic receptor (Homo sapiens, UniProt P07550); assay: ADRB2 activation measured by internalization – cell-based, FAP fluorogen, flow cytometry, cherry pick 1, dose response (AID 588763); type: functional
[2] = molecular target: Type-1 angiotensin II receptor (Homo sapiens, UniProt P30556); assay: antagonism of angiotensin II type 1 receptor – cell-based, uHTS hits, selectivity assay for APJ receptor antagonist project, dose response (AID 463214); type: functional;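 note: antagonist potency against angiotensin II stimulated AT1 response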
Type-1 angiotensin II receptor, sequence (P30556 whole entry): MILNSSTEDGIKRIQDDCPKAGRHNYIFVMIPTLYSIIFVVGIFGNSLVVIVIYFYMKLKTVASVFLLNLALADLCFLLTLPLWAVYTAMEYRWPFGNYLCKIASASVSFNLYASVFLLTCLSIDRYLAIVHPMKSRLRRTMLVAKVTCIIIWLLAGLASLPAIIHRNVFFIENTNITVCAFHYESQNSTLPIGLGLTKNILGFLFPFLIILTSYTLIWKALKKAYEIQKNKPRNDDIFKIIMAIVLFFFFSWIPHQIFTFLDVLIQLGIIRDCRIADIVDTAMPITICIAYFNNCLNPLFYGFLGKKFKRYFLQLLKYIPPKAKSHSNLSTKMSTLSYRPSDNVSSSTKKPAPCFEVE

[3] = test system: INS1; assay: INS-1E survival protection against cytokine death – cell-based, luminescence, retest, dose response (AID 449756); type: functional; conditions: Rattus norvegicus;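 note: cell death triggered by IL-1 beta plus TNF-alpha plus IFN-gamma mixture; protective hits raise ATP signal compared with cytokine alone wells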
[4] = NIH3T3 cell viability loss – ATP luminescence, mouse fibroblasts, counter-screen, dose response (AID 2010); type: functional, cell-based;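 note: cells exposed to compound for about 90 hours before reading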
[5] = molecular target: T1, Leucine aminopeptidase (Plasmodium falciparum 3D7, UniProt Q8IL11); assay: P. falciparum M17LAP inhibitors, primary screen, biochemical, fluorogenic H-Leu-NHMec substrate, 1536-well (AID 1619); type: functional
T1 sequence (Q8IL11 whole entry): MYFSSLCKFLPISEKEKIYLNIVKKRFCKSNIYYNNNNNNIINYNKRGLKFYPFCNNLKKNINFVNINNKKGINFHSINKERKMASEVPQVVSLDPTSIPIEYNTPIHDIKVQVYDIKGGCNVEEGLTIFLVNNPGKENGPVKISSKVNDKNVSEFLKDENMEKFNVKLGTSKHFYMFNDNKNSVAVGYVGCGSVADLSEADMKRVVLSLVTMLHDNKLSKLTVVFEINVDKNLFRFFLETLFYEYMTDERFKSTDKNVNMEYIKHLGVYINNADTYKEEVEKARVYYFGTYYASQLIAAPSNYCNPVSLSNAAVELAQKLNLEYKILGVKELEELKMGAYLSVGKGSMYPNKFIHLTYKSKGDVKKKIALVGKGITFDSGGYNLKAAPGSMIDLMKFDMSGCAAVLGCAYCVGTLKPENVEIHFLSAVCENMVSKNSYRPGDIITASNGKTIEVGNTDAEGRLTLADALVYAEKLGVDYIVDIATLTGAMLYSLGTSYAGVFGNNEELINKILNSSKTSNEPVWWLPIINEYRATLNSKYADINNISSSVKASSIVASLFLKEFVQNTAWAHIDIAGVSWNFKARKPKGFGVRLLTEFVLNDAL

[6] = molecular target: Beta-galactosidase (Escherichia coli, UniProt Q8VNN2); assay: PubChem AID 485352; type: functional
Beta-galactosidase, sequence (Q8VNN2 whole entry): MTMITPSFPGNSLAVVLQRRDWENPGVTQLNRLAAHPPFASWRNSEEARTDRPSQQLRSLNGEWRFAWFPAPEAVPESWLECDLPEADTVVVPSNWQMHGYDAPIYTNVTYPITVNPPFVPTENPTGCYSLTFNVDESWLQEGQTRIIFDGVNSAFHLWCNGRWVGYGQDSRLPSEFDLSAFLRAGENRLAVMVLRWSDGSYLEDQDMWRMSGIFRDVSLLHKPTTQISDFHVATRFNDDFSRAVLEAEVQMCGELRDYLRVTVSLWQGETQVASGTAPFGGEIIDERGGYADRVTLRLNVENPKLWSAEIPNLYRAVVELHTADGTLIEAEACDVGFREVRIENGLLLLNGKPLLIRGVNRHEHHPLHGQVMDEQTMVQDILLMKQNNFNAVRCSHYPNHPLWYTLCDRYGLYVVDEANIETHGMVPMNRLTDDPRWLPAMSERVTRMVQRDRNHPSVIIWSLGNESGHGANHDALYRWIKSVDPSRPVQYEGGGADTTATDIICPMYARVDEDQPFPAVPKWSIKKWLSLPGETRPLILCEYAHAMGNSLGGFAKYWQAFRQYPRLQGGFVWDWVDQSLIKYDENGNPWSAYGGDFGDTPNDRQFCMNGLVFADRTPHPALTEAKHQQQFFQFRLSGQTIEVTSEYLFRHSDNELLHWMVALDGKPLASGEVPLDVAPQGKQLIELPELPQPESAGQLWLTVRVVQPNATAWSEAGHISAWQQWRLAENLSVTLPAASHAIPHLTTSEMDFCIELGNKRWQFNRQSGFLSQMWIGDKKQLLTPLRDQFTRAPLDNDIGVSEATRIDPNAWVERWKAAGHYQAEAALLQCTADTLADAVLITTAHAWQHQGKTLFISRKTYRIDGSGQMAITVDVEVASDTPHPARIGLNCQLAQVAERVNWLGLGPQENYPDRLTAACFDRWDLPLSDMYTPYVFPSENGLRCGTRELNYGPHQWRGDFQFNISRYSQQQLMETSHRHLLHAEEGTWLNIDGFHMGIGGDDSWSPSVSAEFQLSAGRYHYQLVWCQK

[7] = Trypanosoma cruzi growth suppression in host cells – NIH3T3 host cells, beta-gal luminescence, confirmation (AID 2044); type: functional, cell-based;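 note: intracellular parasites grown in NIH/3T3 mouse fibroblasts as host cells; luminescent beta-galactosidase reporter signal from transgenic T. cruzi replicating inside host cells; inhibitors lower the luminescence signal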
[8] = molecular target: T2, Short transient receptor potential channel 4 (Mus musculus, UniProt Q9QUQ5); assay: calcium entry via TRPC4 opening agents – cell-based, HEK293 TRPC4/mu-opioid, Fluo-4 calcium, dose response (AID 434937); type: functional
T2 sequence (Q9QUQ5 whole entry): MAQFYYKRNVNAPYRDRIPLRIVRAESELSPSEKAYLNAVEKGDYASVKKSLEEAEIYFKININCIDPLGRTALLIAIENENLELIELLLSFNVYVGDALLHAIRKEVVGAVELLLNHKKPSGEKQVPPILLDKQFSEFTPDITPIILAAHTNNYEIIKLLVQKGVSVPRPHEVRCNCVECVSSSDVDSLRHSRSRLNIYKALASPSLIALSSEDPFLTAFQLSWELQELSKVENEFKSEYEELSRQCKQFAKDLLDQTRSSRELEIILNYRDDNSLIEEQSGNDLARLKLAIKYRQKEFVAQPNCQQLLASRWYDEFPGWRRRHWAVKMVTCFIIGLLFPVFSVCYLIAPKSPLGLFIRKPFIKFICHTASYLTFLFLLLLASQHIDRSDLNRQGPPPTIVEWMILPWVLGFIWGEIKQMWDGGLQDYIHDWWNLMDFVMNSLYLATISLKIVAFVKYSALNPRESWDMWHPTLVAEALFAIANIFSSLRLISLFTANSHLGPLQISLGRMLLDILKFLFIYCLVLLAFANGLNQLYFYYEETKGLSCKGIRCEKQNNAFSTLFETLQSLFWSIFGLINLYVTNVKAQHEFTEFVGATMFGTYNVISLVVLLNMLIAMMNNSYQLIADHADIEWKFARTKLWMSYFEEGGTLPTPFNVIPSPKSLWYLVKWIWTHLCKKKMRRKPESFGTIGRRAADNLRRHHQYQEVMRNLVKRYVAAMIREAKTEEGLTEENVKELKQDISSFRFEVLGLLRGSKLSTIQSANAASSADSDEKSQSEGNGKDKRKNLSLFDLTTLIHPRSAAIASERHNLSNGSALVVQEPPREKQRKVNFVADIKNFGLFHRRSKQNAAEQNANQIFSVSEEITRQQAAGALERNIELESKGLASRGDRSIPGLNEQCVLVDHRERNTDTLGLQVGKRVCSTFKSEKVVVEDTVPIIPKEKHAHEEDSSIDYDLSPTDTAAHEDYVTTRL

[9] = molecular target: T3, Microphthalmia-associated transcription factor (Homo sapiens, UniProt O75030); assay: reducers of TRPM1 reporter luminescence, concentration series – cell-based, SK-MEL-5, cherry-picked, set 3, MITF inhibitor project, dose response (AID 493073); type: functional;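 note: SK-MEL-5 melanoma cells with luciferase driven by the MITF target TRPM1 promoter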
T3 sequence (O75030 whole entry): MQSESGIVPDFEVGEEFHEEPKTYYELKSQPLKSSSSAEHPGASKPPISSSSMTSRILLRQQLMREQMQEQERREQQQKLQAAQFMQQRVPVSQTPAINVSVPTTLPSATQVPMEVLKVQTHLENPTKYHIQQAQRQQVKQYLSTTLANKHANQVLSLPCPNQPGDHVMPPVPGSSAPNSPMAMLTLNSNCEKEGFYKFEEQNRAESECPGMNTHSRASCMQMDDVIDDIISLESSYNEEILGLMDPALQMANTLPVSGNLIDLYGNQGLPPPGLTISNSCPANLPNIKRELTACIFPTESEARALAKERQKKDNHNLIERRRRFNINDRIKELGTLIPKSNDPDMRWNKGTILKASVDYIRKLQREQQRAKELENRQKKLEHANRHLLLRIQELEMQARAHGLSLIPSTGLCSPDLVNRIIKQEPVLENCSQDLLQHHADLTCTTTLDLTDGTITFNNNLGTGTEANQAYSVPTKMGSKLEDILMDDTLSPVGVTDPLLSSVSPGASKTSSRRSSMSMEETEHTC

[10] = alpha-synuclein stem-loop luciferase translation blockers – H4 neuroglioma cells, luminescence, confirmation (AID 1988); type: functional, cell-based
[11] = Luminescence Cell-Based Dose Response HTS to Identify Inhibitors of 5'UTR Stem-Loop Driven Prion Protein mRNA Translation in H4 Neuroglioblastoma Cells. [Related pubchem assays: 1827 (Project Summary), 1813 (Primary HTS)]; type: functional
[12] = luciferase reporter signal suppression in cells – H4 neuroglioma cells, luminescence, dose response (AID 1990); type: functional, cell-based
[13] = molecular target: Apoptotic protease-activating factor 1 (Homo sapiens, UniProt O14727); type: functional
Apoptotic protease-activating factor 1, sequence (O14727 whole entry): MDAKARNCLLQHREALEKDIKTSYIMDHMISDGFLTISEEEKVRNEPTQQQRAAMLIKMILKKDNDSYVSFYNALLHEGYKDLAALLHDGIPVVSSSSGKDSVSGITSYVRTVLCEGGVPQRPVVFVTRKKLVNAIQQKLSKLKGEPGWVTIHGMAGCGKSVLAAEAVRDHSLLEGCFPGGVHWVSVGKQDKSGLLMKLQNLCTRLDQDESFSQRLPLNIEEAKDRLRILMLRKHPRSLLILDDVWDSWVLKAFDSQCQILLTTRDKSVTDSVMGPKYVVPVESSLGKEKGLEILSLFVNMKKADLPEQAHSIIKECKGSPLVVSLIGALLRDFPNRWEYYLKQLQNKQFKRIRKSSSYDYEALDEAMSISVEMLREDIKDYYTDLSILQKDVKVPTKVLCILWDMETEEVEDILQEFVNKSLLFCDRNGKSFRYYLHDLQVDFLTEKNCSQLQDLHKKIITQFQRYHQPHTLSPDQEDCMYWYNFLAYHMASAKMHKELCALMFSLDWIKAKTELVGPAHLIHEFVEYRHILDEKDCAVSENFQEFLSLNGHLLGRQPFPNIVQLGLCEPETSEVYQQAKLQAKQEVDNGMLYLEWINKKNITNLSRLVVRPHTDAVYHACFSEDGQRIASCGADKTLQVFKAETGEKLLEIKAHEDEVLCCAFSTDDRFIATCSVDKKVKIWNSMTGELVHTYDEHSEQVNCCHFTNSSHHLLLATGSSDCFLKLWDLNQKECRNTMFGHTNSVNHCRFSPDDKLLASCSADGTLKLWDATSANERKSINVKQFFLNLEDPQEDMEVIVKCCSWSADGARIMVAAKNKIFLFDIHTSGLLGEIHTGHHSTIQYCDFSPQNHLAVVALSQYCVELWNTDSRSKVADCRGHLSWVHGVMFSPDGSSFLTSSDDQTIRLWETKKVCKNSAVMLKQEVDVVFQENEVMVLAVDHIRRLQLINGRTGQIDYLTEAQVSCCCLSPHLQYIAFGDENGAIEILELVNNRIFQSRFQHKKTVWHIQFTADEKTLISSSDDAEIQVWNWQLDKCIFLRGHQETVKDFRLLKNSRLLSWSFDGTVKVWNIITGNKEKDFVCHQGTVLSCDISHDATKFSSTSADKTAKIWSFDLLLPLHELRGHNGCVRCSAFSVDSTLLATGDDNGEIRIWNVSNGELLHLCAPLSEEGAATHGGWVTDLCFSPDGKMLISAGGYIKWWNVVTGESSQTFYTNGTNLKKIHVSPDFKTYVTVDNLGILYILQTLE

[14] = test system: INS1; assay: INS-1E mitochondrial potential loss inhibitors – cell-based, JC-1 fluorescence, dry powder, set 2, dose response (AID 488867); type: functional; conditions: Rattus norvegicus
[15] = test system: INS1; assay: suppression of NO production in INS-1E cells – cell-based, Griess absorbance, dry powder, set 2, dose response (AID 488868); type: functional; conditions: Rattus norvegicus
[16] = molecular target: Paired box protein Pax-8 (Homo sapiens, UniProt Q06710); assay: PAX8 transcriptional activity inhibition in RMG-I – RMG-I cells, luciferase, cherry-pick, dose response (AID 687027); type: functional, cell-based;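 note: luciferase reporter driven by Pax8 target thyroperoxidase promoter measured by SteadyGlo luminescence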
Paired box protein Pax-8, sequence (Q06710 whole entry): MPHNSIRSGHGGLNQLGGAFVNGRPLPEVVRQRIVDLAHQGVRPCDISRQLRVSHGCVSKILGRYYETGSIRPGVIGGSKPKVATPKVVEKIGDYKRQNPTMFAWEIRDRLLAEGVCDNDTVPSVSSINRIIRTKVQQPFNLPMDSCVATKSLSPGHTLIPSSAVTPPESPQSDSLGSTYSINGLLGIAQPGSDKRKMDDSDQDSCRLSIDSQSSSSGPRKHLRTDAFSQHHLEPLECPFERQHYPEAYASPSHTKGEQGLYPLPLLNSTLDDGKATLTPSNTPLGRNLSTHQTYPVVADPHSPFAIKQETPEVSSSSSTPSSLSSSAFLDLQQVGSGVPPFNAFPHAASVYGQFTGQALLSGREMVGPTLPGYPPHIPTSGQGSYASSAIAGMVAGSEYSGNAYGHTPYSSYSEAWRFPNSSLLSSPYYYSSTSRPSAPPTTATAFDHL

[17] = suppression of NO production in INS-1E cells – cell-based, Griess absorbance, dry powder, set 3, dose response (AID 488870); type: functional; conditions: Rattus norvegicus
[18] = test system: Candida albicans; assay: C. albicans growth inhibition with fluconazole – CaCi-2 strain, Alamar Blue, dry powder, set 4, dose response (AID 488943); type: functional, organism-based
[19] = test system: NIH3T3; assay: mammalian cell viability counter-check – Alamar Blue, fluconazole, dry powder, cytotoxicity control for antifungal drug resistance project, dose response (AID 488809); type: functional, cell-based; conditions: Mus musculus
[20] = test system: Candida albicans; assay: fluconazole-resistant Candida strain growth inhibitors – CaCi-8 strain, dry powder, set 4, dose response (AID 488950); type: functional, organism-based
[21] = test system: Candida albicans; assay: single-agent toxicity toward C. albicans – CaCi-2 strain, no fluconazole, dry powder, set 4, counter-screen for reversing antifungal drug resistance, dose response (AID 488932); type: functional, organism-based
[22] = test system: Candida albicans; assay: antifungal activity against resistant Candida strain – CaCi-8, fluconazole, Alamar Blue, dry powder, dose response (AID 488807); type: functional, organism-based
[23] = molecular target: Hexokinase-1 (Homo sapiens, UniProt P19367); assay: SAR analysis of small molecule inhibitors of hexokinase domain containing I (HKDC1) in the hexokinase 1 selectivity assay. [Related pubchem assays (depositor defined):AID493160, AID493190]; type: functional
Hexokinase-1, sequence (P19367 whole entry, the tested form may be a part): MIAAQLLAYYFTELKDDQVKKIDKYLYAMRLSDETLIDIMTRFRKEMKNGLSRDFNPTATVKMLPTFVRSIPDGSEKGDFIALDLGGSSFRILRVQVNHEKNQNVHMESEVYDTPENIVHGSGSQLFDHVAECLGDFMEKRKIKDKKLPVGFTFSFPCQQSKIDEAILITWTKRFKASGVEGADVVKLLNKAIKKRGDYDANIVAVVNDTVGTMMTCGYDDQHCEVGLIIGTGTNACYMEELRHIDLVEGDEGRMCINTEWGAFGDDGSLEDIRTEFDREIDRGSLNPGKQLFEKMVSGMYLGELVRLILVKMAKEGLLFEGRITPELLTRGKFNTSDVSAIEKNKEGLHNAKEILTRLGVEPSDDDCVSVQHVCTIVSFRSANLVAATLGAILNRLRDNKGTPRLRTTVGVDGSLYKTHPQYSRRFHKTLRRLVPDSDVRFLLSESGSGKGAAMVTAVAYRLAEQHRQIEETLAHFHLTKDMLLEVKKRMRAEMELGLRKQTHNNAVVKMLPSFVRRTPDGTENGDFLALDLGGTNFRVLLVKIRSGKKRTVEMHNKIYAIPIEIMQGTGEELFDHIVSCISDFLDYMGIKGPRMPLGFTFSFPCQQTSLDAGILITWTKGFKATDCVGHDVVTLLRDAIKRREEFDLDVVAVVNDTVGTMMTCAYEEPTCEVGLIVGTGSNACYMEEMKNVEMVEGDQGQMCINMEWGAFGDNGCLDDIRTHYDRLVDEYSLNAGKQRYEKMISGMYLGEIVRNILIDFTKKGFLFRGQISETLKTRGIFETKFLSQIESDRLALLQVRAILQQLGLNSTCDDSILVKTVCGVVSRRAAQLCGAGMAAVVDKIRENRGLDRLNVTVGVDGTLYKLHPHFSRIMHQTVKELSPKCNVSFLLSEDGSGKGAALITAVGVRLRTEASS

[24] = molecular target: T4, Hexokinase HKDC1 (Homo sapiens, UniProt Q2TB90); assay: SAR analysis of small molecule inhibitors of hexokinase domain containing I (HKDC1). [Related pubchem assays (depositor defined):AID493160, AID493190]; type: functional
T4 sequence (Q2TB90 whole entry): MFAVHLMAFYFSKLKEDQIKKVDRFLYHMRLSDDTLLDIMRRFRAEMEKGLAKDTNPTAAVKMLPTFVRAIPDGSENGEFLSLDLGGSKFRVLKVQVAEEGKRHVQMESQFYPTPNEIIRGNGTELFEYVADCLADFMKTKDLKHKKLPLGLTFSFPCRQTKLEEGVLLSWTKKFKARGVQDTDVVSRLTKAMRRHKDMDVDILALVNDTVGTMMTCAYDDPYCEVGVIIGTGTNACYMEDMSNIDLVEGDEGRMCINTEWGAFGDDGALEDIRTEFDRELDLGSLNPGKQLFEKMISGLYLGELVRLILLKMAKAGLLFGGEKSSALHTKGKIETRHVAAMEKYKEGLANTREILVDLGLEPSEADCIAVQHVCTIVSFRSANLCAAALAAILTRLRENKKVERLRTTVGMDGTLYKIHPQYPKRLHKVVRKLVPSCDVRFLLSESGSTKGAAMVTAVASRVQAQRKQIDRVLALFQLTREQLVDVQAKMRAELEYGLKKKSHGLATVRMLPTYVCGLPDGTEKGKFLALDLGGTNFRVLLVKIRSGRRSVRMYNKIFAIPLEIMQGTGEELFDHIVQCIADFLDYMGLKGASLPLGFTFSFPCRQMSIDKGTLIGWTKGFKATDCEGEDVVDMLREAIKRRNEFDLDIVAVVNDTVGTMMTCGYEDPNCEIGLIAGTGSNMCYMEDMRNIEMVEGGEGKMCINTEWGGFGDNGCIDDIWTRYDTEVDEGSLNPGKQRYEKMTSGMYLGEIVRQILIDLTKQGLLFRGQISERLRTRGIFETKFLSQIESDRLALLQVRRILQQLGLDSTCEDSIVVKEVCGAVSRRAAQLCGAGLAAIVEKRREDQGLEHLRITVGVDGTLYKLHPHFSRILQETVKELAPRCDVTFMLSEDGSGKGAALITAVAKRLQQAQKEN

Beta-2 adrenergic receptor, sequence (P07550 whole entry): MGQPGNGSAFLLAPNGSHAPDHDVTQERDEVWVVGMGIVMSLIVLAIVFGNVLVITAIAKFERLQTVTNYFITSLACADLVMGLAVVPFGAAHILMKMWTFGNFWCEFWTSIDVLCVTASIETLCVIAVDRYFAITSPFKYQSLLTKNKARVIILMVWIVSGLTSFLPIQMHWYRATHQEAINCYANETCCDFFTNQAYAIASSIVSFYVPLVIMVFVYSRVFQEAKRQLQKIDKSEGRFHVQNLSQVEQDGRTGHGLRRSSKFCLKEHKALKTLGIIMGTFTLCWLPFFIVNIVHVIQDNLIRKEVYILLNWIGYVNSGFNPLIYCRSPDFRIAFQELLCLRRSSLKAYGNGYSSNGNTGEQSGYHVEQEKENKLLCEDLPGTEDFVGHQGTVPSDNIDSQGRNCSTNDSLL

## Nc1cccc(C#Cc2ccc3c(=O)c4ccccc4oc3c2)c1
[1]
  EC50: 0.245 µM (active)

## CC(C)(C)c1cc(CCC(=O)NNC(=S)NC(=O)c2ccccc2)cc(C(C)(C)C)c1O
[2]
  IC50: 35.5 µM (not active)
[3]
  AC50: 3.99 µM (active)
[4]
  EC50: 15.7 µM (active)
[5]
  IC50: 32.2 µM (active)
[6]
  EC50: > 40 µM (inactive)
[7]
  EC50: 0.382 µM (active)
[8]
  EC50: 3.35 µM (active)

## CC(=O)Nc1ccc(S(=O)(=O)NC2=C(N3CCN(C)CC3)C(=O)c3ccccc3C2=O)cc1
[3]
  AC50: 3.99 µM (active)
[9]
  AC50: 3.65 µM (active)
[10]
  EC50: 11.1 µM (active)
[11]
  EC50: > 120 µM (not active)
[12]
  EC50: 15.6 µM (active)
[13]
  IC50: 29.7 µM (active)

## Cc1ccc(S(=O)(=O)N(C)C[C@H]2Oc3c(NC(=O)Nc4cccc5ccccc45)cccc3C(=O)N([C@@H](C)CO)C[C@@H]2C)cc1
[14]
  AC50: 38.8 µM (active)
[15]
  AC50: 45.6 µM (active)
[16]
  AC50: 5.94 µM (active)
[17]
  AC50: > 195 µM (inactive)

## O=C(c1csc2ccccc12)N1CCN(c2ccnc3cc(Cl)ccc23)CC1
[18]
  AC50: 0.946 µM (active)
[19]
  AC50: 4.47 µM (active)
[20]
  AC50: 1.69 µM (active)
[21]
  AC50: 106 µM (active)
[22]
  AC50: 2.72 µM (active)

## COc1ccc(/C=C/c2nc3ccccc3c(=O)n2Cc2ccccc2)cc1OC
[23]
  IC50: > 80 µM (inactive)
[24]
  IC50: > 80 µM (inactive)
